# In PMC6934184, “Selective DNA-PKcs inhibition extends the therapeutic index of localized radiotherapy and chemotherapy” (The Journal of Clinical Investigation, 2019):
# Target: T1, TEK (Tie2) (Homo sapiens, UniProt Q02763)
# T1 construct: purchased Thermo Fisher Scientific (Life Technologies) SelectScreen
# Experiment: SelectScreen Z'LYTE
# Format: biochemical
# Method in brief: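 Percent values come from Thermo SelectScreen profiling of NU5455, combining activity and binding assays. CSF1R was run in Z'LYTE format at Km app ATP, and CAMK1 in Adapta format with ATP listed at 10.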
# T1 sequence (Q02763 23-1124): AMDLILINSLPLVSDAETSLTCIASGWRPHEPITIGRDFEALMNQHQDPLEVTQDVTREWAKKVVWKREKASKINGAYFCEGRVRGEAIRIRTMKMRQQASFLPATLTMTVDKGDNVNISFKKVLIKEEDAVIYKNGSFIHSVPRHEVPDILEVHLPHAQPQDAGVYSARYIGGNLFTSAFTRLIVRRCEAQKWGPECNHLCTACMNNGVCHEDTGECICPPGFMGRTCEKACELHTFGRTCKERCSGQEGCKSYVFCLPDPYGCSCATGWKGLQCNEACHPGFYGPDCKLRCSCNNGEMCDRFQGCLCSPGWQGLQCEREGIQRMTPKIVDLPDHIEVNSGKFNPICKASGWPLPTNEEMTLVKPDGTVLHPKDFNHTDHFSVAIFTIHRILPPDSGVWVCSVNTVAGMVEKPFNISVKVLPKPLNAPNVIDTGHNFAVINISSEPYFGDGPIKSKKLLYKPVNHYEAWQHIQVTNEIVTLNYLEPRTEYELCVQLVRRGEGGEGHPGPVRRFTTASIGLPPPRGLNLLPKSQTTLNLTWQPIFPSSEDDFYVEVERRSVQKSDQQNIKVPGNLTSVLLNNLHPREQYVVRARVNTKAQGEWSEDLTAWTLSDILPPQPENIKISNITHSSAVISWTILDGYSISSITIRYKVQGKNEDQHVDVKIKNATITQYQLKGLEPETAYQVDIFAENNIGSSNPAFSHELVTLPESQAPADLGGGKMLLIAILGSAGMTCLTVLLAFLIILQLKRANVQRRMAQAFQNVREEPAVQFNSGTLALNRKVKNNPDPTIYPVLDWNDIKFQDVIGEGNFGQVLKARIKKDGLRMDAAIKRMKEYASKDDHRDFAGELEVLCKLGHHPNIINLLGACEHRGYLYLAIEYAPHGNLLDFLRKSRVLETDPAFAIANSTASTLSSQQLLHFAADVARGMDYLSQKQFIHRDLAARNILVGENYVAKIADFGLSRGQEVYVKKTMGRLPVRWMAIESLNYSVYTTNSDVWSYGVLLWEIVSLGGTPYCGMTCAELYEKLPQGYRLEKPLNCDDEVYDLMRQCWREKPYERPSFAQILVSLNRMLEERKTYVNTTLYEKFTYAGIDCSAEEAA
smiles,measurement,value
CN(C(=O)CN1CCOCC1)c1ccc2sc3c(-c4cccc5c(=O)cc(N6CC7CCC(C6)O7)oc45)cccc3c2c1 [NU5455],inhibition at 1 µM,-0.1%
